Test results reported in patent US5792767A, “Bicyclic substituted hexahydrobenz [e] isoindole alpha-1 adrenergic antagonists” (priority 1995, dated 1998).
Counter-ions that a name gives are not always drawn.

Experiments:
[1] = target: T1, α-1A adrenoceptor (rat vas deferens) (Rattus norvegicus, UniProt P43140); assay: Functional antagonism of phenylephrine-induced contraction of rat vas deferens; format: cell-based; conditions: vs phenylephrine-induced contraction, Schild plot; for Kb: read-out: pA2 Rat Vas Deferens [α-1A] (converted)
T1 construct: PE-induced contraction of rat vas deferens; from tissue; host or cells: isolated rat vas deferens
T1 sequence (P43140 1-466): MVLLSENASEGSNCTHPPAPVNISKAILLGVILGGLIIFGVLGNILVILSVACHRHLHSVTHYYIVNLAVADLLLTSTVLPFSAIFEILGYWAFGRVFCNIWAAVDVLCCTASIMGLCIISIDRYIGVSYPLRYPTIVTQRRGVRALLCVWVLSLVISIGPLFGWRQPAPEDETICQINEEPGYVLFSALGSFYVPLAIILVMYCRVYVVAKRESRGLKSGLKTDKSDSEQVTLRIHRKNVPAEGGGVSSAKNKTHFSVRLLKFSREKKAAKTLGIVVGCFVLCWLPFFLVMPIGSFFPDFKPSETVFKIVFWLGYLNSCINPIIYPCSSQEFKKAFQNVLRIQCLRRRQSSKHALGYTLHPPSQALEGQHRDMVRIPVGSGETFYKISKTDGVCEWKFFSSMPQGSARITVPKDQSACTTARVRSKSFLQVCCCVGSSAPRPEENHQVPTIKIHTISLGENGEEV
From the text: (§1) Functional assays indicative of pharmacologically defined α-1 adrenoceptors were used to further characterize compounds. Inhibition of phenylephrine (PE)-induced contraction of canine prostate smooth muscle can be correlated with α-1A adrenoceptor activation. […] For each of these models, agonist dose response curves were repeated against increasing concentrations of test agent to derive a Schild plot [log ([…]) against log (molarity of test agent)] to determine the pA2.

[2] = target: T2, α-1B adrenoceptor (rat spleen) (Rattus norvegicus, UniProt P15823); assay: Functional antagonism of phenylephrine-induced contraction of rat spleen; format: cell-based; conditions: vs phenylephrine-induced contraction, Schild plot; for Kb: read-out: pA2 Rat Spleen [α-1B] (converted)
T2 construct: PE-induced contraction of rat spleen; from tissue; host or cells: isolated rat spleen
T2 sequence (P15823 1-515): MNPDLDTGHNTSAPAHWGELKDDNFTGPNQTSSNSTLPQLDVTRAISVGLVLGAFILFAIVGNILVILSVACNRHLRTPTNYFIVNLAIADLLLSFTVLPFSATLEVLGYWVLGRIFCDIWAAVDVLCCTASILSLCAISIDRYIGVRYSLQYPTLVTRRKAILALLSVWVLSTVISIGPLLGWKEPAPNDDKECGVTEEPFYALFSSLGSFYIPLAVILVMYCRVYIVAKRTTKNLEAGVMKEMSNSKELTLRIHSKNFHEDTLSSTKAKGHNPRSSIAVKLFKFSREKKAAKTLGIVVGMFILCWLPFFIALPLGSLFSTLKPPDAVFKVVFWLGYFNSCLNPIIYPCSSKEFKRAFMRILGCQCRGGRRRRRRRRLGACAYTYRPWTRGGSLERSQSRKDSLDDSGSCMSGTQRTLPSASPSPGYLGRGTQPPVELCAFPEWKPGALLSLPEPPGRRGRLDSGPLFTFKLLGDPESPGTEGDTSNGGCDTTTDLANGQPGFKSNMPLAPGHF
From the text: as §1

[3] = target: T3, α-1A adrenoceptor (dog prostate) (Homo sapiens, UniProt P35348); assay: Functional antagonism of phenylephrine-induced contraction of canine prostate strips; format: cell-based, dog (canine); conditions: vs phenylephrine-induced contraction, Schild plot
T3 construct: from tissue; host or cells: canine prostate strips
T3 sequence (P35348 1-466): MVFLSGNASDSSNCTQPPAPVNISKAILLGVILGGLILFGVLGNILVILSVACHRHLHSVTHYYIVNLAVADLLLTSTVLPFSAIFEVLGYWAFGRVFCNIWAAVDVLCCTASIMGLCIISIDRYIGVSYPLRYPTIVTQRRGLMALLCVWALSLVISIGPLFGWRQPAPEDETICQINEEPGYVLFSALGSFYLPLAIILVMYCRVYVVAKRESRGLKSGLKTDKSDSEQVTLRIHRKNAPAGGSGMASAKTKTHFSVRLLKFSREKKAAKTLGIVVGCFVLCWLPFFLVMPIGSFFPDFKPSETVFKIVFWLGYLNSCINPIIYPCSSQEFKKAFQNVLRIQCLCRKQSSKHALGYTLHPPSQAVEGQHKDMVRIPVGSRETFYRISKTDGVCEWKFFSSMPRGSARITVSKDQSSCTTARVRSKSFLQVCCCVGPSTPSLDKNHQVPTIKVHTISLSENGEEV
From the text: (§2) Canine prostate strips were used in vitro as previously described (Hieble, J. P., Boyce, A. J. and Caine, M., Fed. Proc., 45: 2609-2614 (1986)), to determine antagonist potencies against phenylephrine-induced contractions.
as §1

[4] = target: T4, α-1A adrenoceptor (dog prostate); assay: as above; format: cell-based, dog (canine); conditions: vs phenylephrine-induced contraction, Schild plot; read-out: pA2 Dog Prostate [α-1A] (converted)
T4 construct: from tissue; host or cells: canine prostate strips
From the text: as §2, §1

BPH patients = conditions: cited from earlier work; for improvement in urinary flow rates and subjective symptom scores: longer term studies

SMILES	pA2 Dog Prostate [α-1A] [3]	Kb [1] [nM]	Kb [2] [nM]	Kb [4] [nM]	further results
COc1cccc2c1CC[C@@H]1CN(CCn3c(=O)[nH]c4ccccc4c3=O)C[C@H]21 (relative stereo) [Example 1, 3-[2-(cis-9-Methoxy-2,3,3a,4,5,9b-hexahydro-[1H]-benz[e]isoindol-1-yl)ethyl]-[1H,3H]-quinazoline-2,4(1H,3H)-dione hydrochloride]	9.29				pA2 Rat Vas Deferens [α-1A] [1]: 8.49; pA2 Rat Spleen [α-1B] [2]: 8
COc1cccc2c1CC[C@H]1CN(CCn3c(=O)[nH]c4c(OC)cccc4c3=O)C[C@@H]21 (relative stereo) [Example 9, 3-[2-(cis-6-Methoxy-2,3,3a,4,5,9b-hexahydro-[1H]-benz[e]isoindol-1-yl)ethyl]-8-methoxy-quinazoline-2,4(1H,3H)-dione hydrochloride]		2.4	8.91	0.407	
COc1cccc2c1CC[C@H]1CN(CCn3c(=O)[nH]c4cccc(C)c4c3=O)C[C@@H]21 (relative stereo) [Example 12, hydrochloride]		8.51	6.76	21.4	
COc1cccc2c1CC[C@H]1CN(CCn3c(=O)[nH]c4sccc4c3=O)C[C@@H]21 [Example 13, hydrochloride]		7.59	4.27	0.851	
COc1cc2nc(N3CCN(C(=O)C4COc5ccccc5O4)CC3)nc(N)c2cc1OC (stereo not shown) [doxazosin]					improvement in urinary flow rates and subjective symptom scores (BPH patients): significant improvements in urinary flow rates and subjective symptom scores
O=C(NC1CCN(CCc2c[nH]c3ccccc23)CC1)c1ccccc1 [indoramin]					improvement in urinary flow rates and subjective symptom scores (BPH patients): significant improvements in urinary flow rates and subjective symptom scores
COc1cc2nc(N3CCN(C(=O)c4ccco4)CC3)nc(N)c2cc1OC [prazosin]					improvement in urinary flow rates and subjective symptom scores (BPH patients): significant improvements in urinary flow rates and subjective symptom scores
COc1cc2nc(N3CCN(C(=O)C4CCCO4)CC3)nc(N)c2cc1OC (stereo not shown) [terazosin]					pA2 Rat Spleen [α-1B] [2]: 8.6; improvement in urinary flow rates and subjective symptom scores (BPH patients): significant improvements in urinary flow rates and subjective symptom scores; clinical efficacy in BPH (BPH patients; non-selective α-1 blockers): Clinical efficacy of α-1 antagonists in BPH has been demonstrated

The next lines start with results.

pA2 Dog Prostate [α-1A] [3]	Kb [1] [nM]	Kb [2] [nM]	Kb [4] [nM]	SMILES	further results
8.63				COc1cccc2c1CC[C@H]1CN(CCn3c(=O)[nH]c4c(-c5ccccc5)csc4c3=O)C[C@@H]21 (relative stereo) [Example 31, 3-[2-(cis-6-Methoxy-2,3,3a,4,5,9b-hexahydro-[1H]-benz[e]isoindol-1-yl)ethyl]-7-phenylthieno[3.2-d]pyrimidine-2,4(1H,3H)-dione methanesulfonate]	
8.28				COc1cccc2c1CC[C@H]1CN(CCn3c(=O)[nH]c4cc(C)c(C)cc4c3=O)C[C@@H]21 [Example 68, hydrochloride]	
8.57				CCCOC(=O)c1ccc2c(=O)n(CCN3C[C@@H]4CCc5c(OC)cccc5[C@@H]4C3)c(=O)[nH]c2c1 [Example 72, hydrochloride]	
	0.479	2.95	0.398	COc1cccc2c1CC[C@H]1CN(CCn3c(=O)[nH]c4c(C)c(OC)ccc4c3=O)C[C@@H]21 [Example 77, 3-[2-((3aR,9bR)cis-6-Methoxy-2,3,3a,4,59b-hexahydro-[1H]-benz[e]isoindol-1-yl)ethyl]-7-methoxy-8-methyl-quinazoline-2(1H,3H)-dione hydrochloride]	
8.03				CCOc1ccc2c(=O)n(CCN3C[C@@H]4CCc5c(OC)cccc5[C@@H]4C3)c(=O)[nH]c2c1C [Example 78, 3-[2-((3aR,9bR)cis-6-Methoxy-2,3,3a,4,5,9b-hexahydro-[1H]-benz[e]isoindol-1I-yl)ethyl]-7-ethox-8-methyl-quinazoline-2,4(1H,3H|-dione hydrochloride]	
	0.891	11.7	0.631	COc1cccc2c1CC[C@H]1CN(CCn3c(=O)[nH]c4c(C)c(C)ccc4c3=O)C[C@@H]21 [Example 80, 3-[2-((3aR.9bR)cis-6-Methoxy-2,3,3a,4,5,9b-hexahydro-[1H-benz[e]isoindol-1-yl)ethyl]-7.8-dimethylquinazoline-2,4(1H,3H)-dione hydrochloride]	
9.45				COc1cccc2c1CC[C@H]1CN(CCn3c(=O)[nH]c4c(OC)c(OC)ccc4c3=O)C[C@@H]21 [Example 81, hydrochloride]	pA2 Rat Vas Deferens [α-1A] [1]: 8.9; pA2 Rat Spleen [α-1B] [2]: 8.15
	8.51	120	11.2	CCc1cccc2c1CC[C@H]1CN(CCn3c(=O)[nH]c4cc(OC)c(OC)cc4c3=O)C[C@@H]21 [Example 83, hydrochloride]	
